Experiment [1] concerns Peripheral Blood Mononuclear Cells + Umbilical Vein Endothelial Cells. The experiment can be described thus: BioMAP LPS system (TLR4), scoring of readout parameters. The class given is cell-based, human. The following applies: LPS (by position); desired change decrease. The text has this: (§1) Each screened compound is scored according to its modulation of the selected readout parameters. Compounds receive a positive score (score of 1) or negative score (score of 0) for each readout parameter set forth in Table 2 that is modulated in the desired direction. […] Parameters may be penalized by making the positive score a −1 for parameters where regulation is opposite to the desired direction.
(§2) Cell culture. Human umbilical vein endothelial cells (HUVEC) were pooled from multiple donors, cultured according to standard methods, and plated into microtiter plates at passage 4. Cell culture medium for all systems containing HUVEC included hydrocortisone. Coronary artery smooth muscle cells (CASM3C) and umbilical artery smooth muscle cells (HSM3C) were cultured according to standard procedures. Peripheral blood mononuclear cells (PBMC) were prepared from buffy coats from normal human donors according to standard methods. Monocyte-derived macrophages were differentiated in the presence of M-CSF for 7 d according to standard procedures. Human dermal fibroblasts were pooled from 3 donors, cultured according to standard methods, and plated confluent 24 h before stimulation. Cell culture medium for all systems containing fibroblasts and keratinocytes contained low hydrocortisone. Epidermal keratinocytes and bronchial epithelial cells from 3 donors were cultured according to standard procedures and pooled when plated into microtiter plates. For keratinocyte-fibroblast co-cultures, cells were plated simultaneously 24 h before stimulation. For bronchial epithelial cell-fibroblast co-cultures, fibroblasts were plated and cultured 48 before addition of epithelial cells, then cultured another 24 hr before stimulation. Concentrations/amounts of agents added to confluent microtiter plates to build each system: cytokines (IL-1β, 1 ng/ml; TNF-α, 5 ng/ml; IFN-γ, 20 ng/ml; IL-4, 5 ng/ml), activators (SAg, 20 ng/ml; histamine, 10 μM; zymosan, 10 μg/ml; or LPS, 2 ng/ml), growth factors (TGF-β, 5 ng/ml; EGF, bFGF, and PDGF-BB, 10 ng/ml), and PBMC (7.5×10^4 cells/well) or macrophages (3.5×10^4 cells/well).
(§3) Compounds. Compounds were prepared in the solvent directed, added 1 hr before stimulation of the cells, and were present during the 24 hr stimulation period for the measurement of parameters listed in Table 2. For proliferation, compounds added 1 hr before stimulation of the cells with cytokines, and were present during the 48 to 72 hr assay. If prepared in DMSO, the final concentration of solvent was 0.1% or less.
(§4) Readout Parameter Measurements. The levels of readout parameters were measured by ELISA. Briefly, microtiter plates are treated, blocked, and then incubated with primary antibodies or isotype control antibodies (0.01-0.5 microg/ml) for 1 hr. After washing, plates were incubated with a peroxidase-conjugated anti-mouse IgG secondary antibody or a biotin-conjugated anti-mouse IgG antibody for 1 hr followed by streptavidin-HRP for 30 min. Plates were washed and developed with TMB substrate and the absorbance (OD) was read at 450 nm (subtracting the background absorbance at 650 nm). Quantitation of TNF-alpha or PGE2 in the LPS system was done using a commercially available kit according to the manufacturer's directions. Proliferation of endothelial cells (HUVEC and CAEC), smooth muscle cells (SMC and CASMC), and PBMC (T cells) was quantitated by Alamar Blue reduction or SRB.
(§5) Data analysis. Mean OD values for each parameter were calculated for compounds run in duplicate. The mean value (or single well OD value) for each parameter in a treated sample was then divided by the mean value from an appropriate control to generate a ratio. All ratios were then log10 transformed. 95% significance prediction envelopes (grey shading in Figures) were calculated for historical controls.

The next experiment concerns Fibroblasts. The experiment can be described thus: BioMAP HDF3CT system (IL-1β + TNF-α + IFN-γ + TGF-β), scoring of readout parameters. In kind it is cell-based, human.
From the text: as §1, §2, §3, §4, §5

Experiment [2] has as its system Bronchial epithelial cells. The experiment can be described thus: BioMAP BE3C system (IL-1β + TNF-α + IFN-γ), scoring of readout parameters. In kind it is cell-based, human. The following applies: for PAI-1 score: desired change decrease; for EGFR score: desired no change or increase.
From the text: as §1, §2, §3, §4, §5

For experiment [3], the system named is Bronchial epithelial cells. The experiment can be described thus: BioMAP BE4T system (IL-4 + TNF-a), scoring of readout parameters. Conditions: for PAI-1 score: desired change decrease; for EGFR score: desired no change or increase. The class given is cell-based, human. Set-up: key: 1 = modulated in desired direction, 0 = not (−1 = opposite). How it is done:
In the “BE4T” system, bronchial epithelial cells, usually primary human bronchial epithelial cells, are cultured in the presence of TNF-α and IL-4.
as §1, §2, §3, §4, §5

The subject of another experiment is human primary cells. The experiment can be described thus: Total score for desired parameter modulation over the BioMAP systems of Table 1. In kind it is cell-based. Conditions: penalties not applied.
From the text: as §1
The relative importance of each parameter may be weighted by the screener to select those parameters of greatest interest for a particular application.
Compounds were first selected to inhibit PAI-1 in the HDFT as an indication of TBF-b signaling inhibition without being cytotoxic. […] Blank spots in Table 3 were where parameter was not assayed. Penalties were not applied for this scoring.
BioMAP Systems are designed to model complex human disease biology in a practical in vitro format. This is achieved by stimulating human primary cells (single cell type or defined mixtures of cell types) such that multiple disease-relevant signaling pathways are simultaneously active. The choice of cell types and stimulations is guided by the knowledge of disease biology and mechanisms. Incorporating appropriate cell types and stimulating signaling pathways relevant to disease states allows association of biological activities detected in BioMAP Systems with disease processes. Drug effects are then recorded by measuring biologically meaningful protein readouts that provide coverage of biological space of interest (e.g., inflammation, tissue remodeling) and allow discrimination between different drug classes tested.
as §2, §3
Readout Parameter Measurements. The levels of readout parameters were measured by ELISA.

For `Cc1c(Cl)cccc1Nc1ccccc1C(=O)O` [Tolfenamic Acid], in experiment [1], the TF score is recorded as 0. Moreover, in the experiment with Fibroblasts, the MMP-1 score worked out at 1. In addition, in experiment [2], the HLA-DR score was determined as 0, the MMP-1 score is reported as 1, the uPA score is on record as 0 and the PAI-1 score came out at 1. The EGFR score in experiment [2] turned out to be 0. Moreover, in experiment [3], the uPA score came out at 0, the PAI-1 score is on record as 0 and the EGFR score is 0. Further, in the experiment on human primary cells, the “Score (Fraction correctly modulated parameters out of 45-58 total)” value came to 0.33.
Take `COc1cc(-c2ccc(=O)[nH]n2)ccc1OC(F)F` [Zardaverine]: the TF score in experiment [1] stood at 1. In the experiment with Fibroblasts, the MMP-1 score came to 0. For the same molecule, in experiment [2], the HLA-DR score came out at 0, the MMP-1 score is 0, the uPA score turned out to be 0 and the PAI-1 score is recorded as 0. The EGFR score in experiment [2] is 0. In experiment [3], the uPA score is listed as 0, the PAI-1 score turned out to be 0 and the EGFR score came out at 0. In addition, in the experiment on human primary cells, the “Score (Fraction correctly modulated parameters out of 45-58 total)” value worked out at 0.25.
Take (R)-(−)-Apomorphine: in experiment [1], the TF score was found to be 0. The MMP-1 score in the experiment with Fibroblasts turned out to be 0. Further, in experiment [2], the HLA-DR score was 1, the MMP-1 score stood at 0, the uPA score is 0 and the PAI-1 score stood at 1. The EGFR score in experiment [2] is given as 0. Besides, in experiment [3], the uPA score was 0, the PAI-1 score is 0 and the EGFR score was found to be 0. The “Score (Fraction correctly modulated parameters out of 45-58 total)” value with human primary cells came to 0.31.
In the case of Antimycin A, the TF score in experiment [1] is 1. The MMP-1 score with Fibroblasts came to 0. Also, in experiment [2], the HLA-DR score is reported as 0, the MMP-1 score turned out to be 0, the uPA score came to 0 and the PAI-1 score is recorded as 1. Moreover, the EGFR score in experiment [2] is recorded as 0. Further, in experiment [3], the uPA score is on record as 0, the PAI-1 score was 1 and the EGFR score is 0. Also, the “Score (Fraction correctly modulated parameters out of 45-58 total)” value with human primary cells came to 0.45.

These data come from patent US20100093613A1, “METHODS FOR IDENTIFYING AGENTS AND THEIR USE FOR THE PREVENTION OR STABILIZATION OF FIBROSIS” (priority 2007, published 2010).
